Tests used:
CCD-18Co fibroblasts = experiment: Elafin exposure of serum-starved CCD-18Co fibroblasts (Example 1); assay type: cell-based, human; conditions: elafin 0.1-3 μg/ml, 24 hours, no TGF-β1
Protocol: FIG. 6. Elafin promotes fibrogenesis in human colonic fibroblasts. (A) The human colonic CCD-18Co fibroblasts were incubated with 100 μl/ml (10%) of human sera from normal, stricturing CD, and non-stricturing CD patients in serum-free DMEM for 24 hours. (B) The human colonic CCD-18Co fibroblasts were incubated with 100 μl/ml (10%) of human sera from high elafin CD group (>8000 pg/ml) and low elafin CD group (<8000 pg/ml) in serum-free DMEM for 24 hours. (C) Serum-starved CCD-18Co fibroblasts were pretreated with 15 μg/ml of anti-elafin neutralizing antibody or control antibody for 30 minutes, followed by exposure to (100 μl/ml) human sera from normal and stricturing CD patients for 24 hours. Six serum donors per group. (D) Serum-starved CCD-18Co fibroblasts were exposed to elafin (0.1-3 μg/ml) for 24 hours. Pro-COL1A1 protein levels in cell lysates were determined by ELISA. (E) Serum-starved primary human intestinal fibroblasts from CD patients were exposed to elafin for 24 hours. mRNA expression was determined by real-time RT-PCR.
Human CCD-18Co intestinal fibroblasts (ATCC) (2×10^6 cells/plate) were cultured in minimal essential medium Eagle's medium (MEM) containing 10% fetal bovine serum (FBS) and 1% penicillin-streptomycin (P/S) (Invitrogen). […]

3T3-L1 adipocytes = experiment: Lipid accumulation and gene expression in 3T3-L1 adipocytes; assay type: cell-based, mouse; conditions: 24-h; elafin 10 ng/ml, miRNA mimics 75 ng/ml
From the text: FIG. 34. Immune cell-derived miR181b-5p and miR219-5p induced leptin mRNA expression in 3T3-L1 adipocytes. (A) Mouse serum exosomal miRNA expression was profiled by a PCR array. miR219-5p, miR210-3p, and miR181-5p were undetectable in the serum exosomes of HFD-treated mice without elafin overexpression. These three miRNAs were detected in the serum exosomes of elafin-overexpressing HFD-treated mice only. Each group consists of 6 mice. […] (C) The positive correlation between serum elafin levels and miRNAs (miR181b-5p and miR210-3p, but not miR219-5p) in the men with T2DM. […]
Cell culture experiments. […] Adipocyte lipid accumulation was determined using Oil Red O staining, as described previously.
Quantitative real-time reverse transcription-polymerase chain reaction (RT-PCR) and miRNA PCR array. […] Quantitative PCR reactions were run with Fast Universal PCR master mix (#4352042, ThermoFisher) in a Bio-Rad CFX384 using cataloged primers (ThermoFisher) for human elafin (Hs00160066_m1), human leptin (Hs00174877_m1), mouse Cd36 (Mm00432403_m1), mouse adiponectin (Mm00456425_m1), mouse leptin (Mm00434759_m1), and mouse Tnf (Mm00443258_m1). Relative mRNA quantification was performed by comparing test groups and control group, after normalization with endogenous control gene human 18S (Hs99999901_s1) or mouse Gapdh (Mm99999915_g1).

With “Elafin: small (6 kDa) human elastase-specific protease inhibitor and antimicrobial peptide; active form SEQ ID NO: 2 (AQEPVKGPVSTKPGSCPIILIRCAMLNPPNRCLKDTDCPGIKKCCEGSCGMACFVPQ; listed as Homo sapiens)” as the substance, how does the “pro-collagen 1A1 protein expression” value (CCD-18Co fibroblasts) read?
Its value is “significantly increased”.

And the “lipid accumulation; Cd36 and adiponectin mRNA expression” value (3T3-L1 adipocytes)?
The value was “affected neither”.
